{"source": "patent US10722496B2", "about": "“2-iminobiotin for use in the treatment of brain cell injury” (Neurophyxia B.V., priority 2015, dated 2020)", "key": {"IMR-32 cell cultures [1]": {"tested_on": "IMR-32 cell cultures", "test": "LDH assay after hypoxia under mild hypothermia", "type": "cell-based, human", "details": "30 ng/ml 2-IB post-hypoxic, 25 hours mild hypothermia (33.5° C.)", "description": "(§1) In-vitro hypoxia was induced for 7 hours using IMR-32 cell cultures. After the hypoxic insult, cultures were subjected to 25 hours of mild hypothermia (33.5° C.) and were incubated with or without 2-IB (10, 30, 50, 100 and 300 ng/ml). Cell morphology was evaluated by brightfield microscopy and cell damage was analyzed by LDH assays. Production of reactive oxygen species (ROS) was measured using fluorometric assays. Western blotting for PARP and phosphorylated as well as unphosphorylated akt and erkl/2 was performed."}, "akt": {"tested_on": "akt", "test": "Western blotting, akt phosphorylation", "type": "cell-based, human", "description": "In vitro hypoxia was induced in the cell cultures by using our recently described system with minor modifications (Huang et al., 2013b; Weber et al., 2015; Zitta et al., 2010). Enzyme stock solutions (100×) of catalase and glucose oxidase (both from Sigma-Aldrich) were prepared in cell culture medium (DMEM/F12, 1% FCS; final concentration: 120 U/ml and 2 U/ml respectively; Sigma-Aldrich) leading to a decrease of partial pressure of oxygen (pO2) below 10 mmHg within 5 minutes. Hypoxic conditions were confirmed by using a tissue oxygen pressure monitor (LICOX® CMP Oxygen Catheter; Integra, Plainsboro, USA). After 7 hours of hypoxia, the cells were washed twice with PBS (PAA) and fresh normoxic medium supplemented with solvent (citrate buffer 1%) or 2-IB (10, 30, 50, 100 and 300 ng/mL) was added to the cells. […]\nProtein extraction was performed using RIPA buffer containing 150 mM sodium chloride, 1% NP-40, 1% sodium deoxycholate, 0.1% sodium dodecyl sulfate (SDS) and 50 mM Tris-HCl buffer (pH 7.6; all from Sigma-Aldrich) or alternatively M-PER buffer (Mammalian Protein Extraction Reagent; Pierce, Ill., USA). Protein concentrations were determined with Roti®-Quant assays (Carl Roth) and samples were stored at −20° C. until use. […] Images were taken and densitometrically analyzed with the software ImageJ (v1.41o, NIH)."}, "iNOS and nNOS": {"tested_on": "iNOS and nNOS", "details": "Tataranno et al., 2015; cited from earlier work"}, "4VO rat model": {"tested_on": "4VO rat model", "test": "Morris water maze after four-vessel occlusion (4VO)", "type": "in vivo", "details": "for memory test, time spent in the right quadrant on day 32: 12 and 24 hours, mean±SD", "description": "The rats were anesthetized using ketamine (90 mg/kg) and xylazine sodium ([…]), as described earlier (Meilin et al., 2014). The first cervical vertebrata was exposed and the vertebral arteries were permanently occluded by electrocauterization. The common carotid arteries were isolated through a ventral midline neck incision and lifted using a 4.0 silk suture ligature, placed around them.\nTwenty-four hours post vertebral arterial occlusion, the animals were reanesthetized using isoflurane. The common carotid arteries were exposed and occluded using microaneurysm clips for 15 minutes. After removing the clips reperfusion occurred. The skin of the incision at the neck was sutured using 4-0 silk suture. During the operation animal's core temperature was monitored using a rectal probe (Model 400; YSI Inc., Yellow Springs, Ohio, USA) connected to a thermometer (Model 8402-00; Cole-Parmer Instrument Co. Ltd, London, UK). The ischemic insult was initiated when a rectal temperature of 37-38° C. was achieved, and this temperature was maintained throughout the procedure using a heating mattress.\nDuring the acclimatization period rats were randomly assigned to experimental groups. The animals were subjected to 4VO per cage or one rat per cage was subjected to HI. Rats received either vehicle (normal saline at pH 3.8-4.0) or 2-IB (1.1 mg/kg, 3.3 mg/kg, 10 mg/kg and 30 mg/kg dissolved in 5 ml/kg normal saline at pH 3.8-4.0). Each dosing group was kept in separate cages to avoid cross-contamination by consuming stools during the study period. The experimental groups were as follows.\nTests were performed during day-time. Rats were introduced to a standardized 1.2 m-diameter pool filled with water for 120 seconds or until they located a platform hidden 1 cm below the water surface. Several visual cues were provided within the room in which the pool was located to allow rats to spatially navigate the water maze. […] Rats were allowed two attempts to find the hidden platform, and this learning test was performed over a period of 4 days (days 28-31). The memory test was performed on the fifth day (day 32), at which time the hidden platform was removed, and rats were placed in the pool for a single 60-second trial. The amount of time that each rat spent in the quadrant, where the hidden platform had previously been located, was recorded by an observer who was blinded to the experimental groups.\nThe Morris water maze was used to evaluate how well the rats remembered the location of the hidden platform, and whether they had learned to navigate towards the appropriate quadrant. The time that the rat spent in the right quadrant was measured. This was considered the primary outcome.\nDuring the learning test the time to find a hidden platform in the water was calculated. Also the area under the curve (AUC) of the subsequent learning tests was calculated. These parameters were considered secondary outcomes."}, "IMR-32 cell cultures [2]": {"tested_on": "IMR-32 cell cultures", "test": "Hydrogen peroxide after hypoxia under mild hypothermia", "type": "cell-based, human", "details": "post-hypoxic application", "description": "as §1"}}}
{"smiles": "N=C1N[C@H]2[C@H](CS[C@H]2CCCCC(=O)O)N1", "note": "[2-IB, 2-iminobiotin]", "values": [{"measurement": "hypoxia-induced LDH release", "setting": "IMR-32 cell cultures [1]", "value": "reduced the hypoxia-induced LDH release even under hypothermia"}, {"measurement": "phospho akt/akt", "setting": "akt; hypoxia plus 30 ng/ml 2-IB", "value": "0.60±0.33"}, {"measurement": "phospho akt/akt", "setting": "akt; normoxia plus 30 ng/ml 2-IB", "value": "0.78±0.54"}, {"measurement": "inhibition of NO biosynthesis", "setting": "iNOS and nNOS", "value": "reversible inhibitor of NO biosynthesis, blocking mainly iNOS and nNOS activity"}, {"measurement": "AUC of the learning test from day 28 until 31", "setting": "4VO rat model; 1.1 mg/kg/dose s.c.", "value": "276±85"}, {"measurement": "memory test, time spent in the right quadrant on day 32", "setting": "4VO rat model; 1.1 mg/kg/dose s.c. upon reperfusion", "value": "10.7 ± 4.4", "unit": "s"}, {"measurement": "AUC of the learning test from day 28 until 31", "setting": "4VO rat model; 3.3 mg/kg/dose s.c.", "value": "266±64"}, {"measurement": "memory test, time spent in the right quadrant on day 32", "setting": "4VO rat model; 3.3 mg/kg/dose s.c. upon reperfusion", "value": "12.7 ± 6.7", "unit": "s"}, {"measurement": "AUC of the learning test from day 28 until 31", "setting": "4VO rat model; 10 mg/kg/dose s.c.", "value": "297±79"}, {"measurement": "memory test, time spent in the right quadrant on day 32", "setting": "4VO rat model; 10 mg/kg/dose s.c. upon reperfusion", "value": "12.0 ± 7.3", "unit": "s"}, {"measurement": "AUC of the learning test from day 28 until 31", "setting": "4VO rat model; 30 mg/kg/dose s.c.", "value": "287±89"}, {"measurement": "memory test, time spent in the right quadrant on day 32", "setting": "4VO rat model; 30 mg/kg/dose s.c. upon reperfusion", "value": "12.5 ± 6.0", "unit": "s"}, {"measurement": "learning test day 28 to day 31, time to find the hidden platform vs vehicle-treated rats", "setting": "4VO rat model; 1.1 (p<0.05), 3.3 (p<0.01) and 30 mg/kg/dose (p<0.05), Dunnett's post hoc", "value": "significant difference"}, {"measurement": "generation of hydrogen peroxide", "setting": "IMR-32 cell cultures [2]", "value": "did not influence generation of hydrogen peroxide"}]}
